The test system of test [1] is Human mammary epithelial cells (HMEC) engineered to express EGFP alone (non myc). Put plainly: 3D spheroid assay, non myc-HMEC (CellTiterGlo3D viability). The test is classed as cell-based. The note with it: 120 h, 3D spheroids, 5 days with compound, read-out: Code: EC50 value in the non myc-HMEC assay. The method, then: (§1) 3D Spheroid Experiments—HMEC
(§2) Human mammary epithelial cells (HMEC) were engineered to express either c-myc tagged with EGFP or EGFP alone (non myc) (analogous but distinct from Kessler J D et al, Science. 2012 Jan. 20; 335(6066):348-53. doi: 10.1126/science.1212728; Hsu T Y et al, Nature. 2015 Sep. 17; 525(7569):384-8. doi: 10.1038/nature14985). The engineered cells were seeded at 1000 (myc) or 4000 (non myc) cells/well in a 384 ultra-low attachment plate in a total volume of 40 µL, HMEC cell culture media (DMEM/F12+10% HI-FBS+15 mM HEPES+0.5 ug/ml Hydrocortisone+10 ug/ml Insulin+20 ng/ml EGF). Plates were spun at 1200 rpm for 5 minutes at room temperature to ensure that cells have gathered in the middle of the well and incubated at 37° C. for 48 hrs before firing with compounds. On Day 2 (48 h post seeding) cells were imaged (brightfield and EGFP fluorescence) using the Celigo imaging cytometer prior to firing compounds. For primary screens, compounds were added at three concentrations (1.25, 10 and 30 uM) in a volume of 120 nL using the ECHO acoustic dispenser and spun at 2000 rpm for 2 minutes at room temperature before incubating at 37° C. for 5 days. […] On Day 7, prior to measuring cell viability using CellTiterGlo3D, cells were imaged (brightfield and EGFP fluorescence) on the Celigo imaging cytometer. The CellTiterGlo3D reagent is added at 30uL/well and incubated at room temperature for 30mins After 30mins of incubation, luminescence readings were recorded using the Perkin Elmer EnVision reader.
In general terms: Cellular ATP, detected with luciferase, serves as a proxy for viable cell number.

The target in test [2] is T1, Full length wild-type cereblon CRBN (Homo sapiens, UniProt Q96SW2).
T1 construct: Full length wild-type cereblon CRBN (80.0 nM, 10 μL) was incubated in assay buffer
The test can be described thus: Fluorescence polarization (FP) assay indicating cereblon binding. The note with it: CRBN 80.0 nM, fluorescent probe 5 nM, FP measured after 12 hours; read-out: rFP IC50. A digest of the protocol: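 Full-length wild-type human CRBN (80.0 nM) preincubated 30 min at room temperature with compound (12-point curve, 300-0.937 or 3000-9.3 nM) in HEPES pH 8.0, NaCl, TCEP, Tween 20. Thalidomide-based Cy5-type probe then added at 5 nM final; FP read after 12 h (ex 590, em 675 nm), normalized to DMSO, IC50 derived.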

The test system of test [3] is Human mammary epithelial cells (HMEC) engineered to express c-myc tagged with EGFP. Put plainly: 3D spheroid assay, myc-HMEC (CellTiterGlo3D viability). The test is classed as cell-based. As for the experimental part:
as §1, §2

Another test concerns the target GSPT1 (Homo sapiens, UniProt P15170+Q96SW2). The test can be described thus: Immunofluorescence assay for GSPT1 degradation in CAL-51 cells. The test is classed as cell-based. The arrangement: CAL-51 cells were purchased from DSMZ (cat. Number ACC302); endogenous in cells; host or cells: CAL-51 (DSMZ ACC302). The following applies: compound treatment 6 hours, read-out: Code: activity for GSPT1 degradation (DC50). A digest of the protocol:
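CAL-51 cells on fibronectin-coated plates treated 6 h with compound (30 μM to 0.1 nM); fixed, stained with anti-GSPT1/Alexa-488, phalloidin and DAPI, imaged by high-content microscopy. Mean GSPT1 intensity per cell normalized to controls; DC50 by non-linear regression.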

Setting [4] is: Homo sapiens, HMEC, 120 h, 3D spheroids, 5 days with compound, read-out: Code: EC50 value in the myc-HMEC assay.

Read-outs that look alike come from different tables or passages of the source.

This passage reports EC50, IC50 and DC50 results from US20220242846A1, “ISOINDOLINONE COMPOUNDS” (Monte Rosa Therapeutics AG, priority 2019, published 2022).

A word on the EC50: it is the concentration that produces a half-maximal response. What is called IC50 is the concentration at which inhibition is half-maximal. Usually DC50 stands for the concentration giving 50% degradation.

T1 sequence (Q96SW2 whole entry): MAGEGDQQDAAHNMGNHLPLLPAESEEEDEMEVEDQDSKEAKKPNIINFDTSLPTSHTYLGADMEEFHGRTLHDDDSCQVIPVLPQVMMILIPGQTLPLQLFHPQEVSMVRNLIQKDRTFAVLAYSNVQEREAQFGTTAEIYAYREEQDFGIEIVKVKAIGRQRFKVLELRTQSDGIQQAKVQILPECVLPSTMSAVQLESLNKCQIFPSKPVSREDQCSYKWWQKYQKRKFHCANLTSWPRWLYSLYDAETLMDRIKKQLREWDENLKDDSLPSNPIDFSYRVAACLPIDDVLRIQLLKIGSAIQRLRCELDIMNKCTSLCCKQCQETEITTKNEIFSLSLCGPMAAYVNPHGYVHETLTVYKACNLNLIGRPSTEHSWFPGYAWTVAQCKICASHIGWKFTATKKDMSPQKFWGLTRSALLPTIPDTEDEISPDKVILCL
Chain of GSPT1 (P15170 whole entry): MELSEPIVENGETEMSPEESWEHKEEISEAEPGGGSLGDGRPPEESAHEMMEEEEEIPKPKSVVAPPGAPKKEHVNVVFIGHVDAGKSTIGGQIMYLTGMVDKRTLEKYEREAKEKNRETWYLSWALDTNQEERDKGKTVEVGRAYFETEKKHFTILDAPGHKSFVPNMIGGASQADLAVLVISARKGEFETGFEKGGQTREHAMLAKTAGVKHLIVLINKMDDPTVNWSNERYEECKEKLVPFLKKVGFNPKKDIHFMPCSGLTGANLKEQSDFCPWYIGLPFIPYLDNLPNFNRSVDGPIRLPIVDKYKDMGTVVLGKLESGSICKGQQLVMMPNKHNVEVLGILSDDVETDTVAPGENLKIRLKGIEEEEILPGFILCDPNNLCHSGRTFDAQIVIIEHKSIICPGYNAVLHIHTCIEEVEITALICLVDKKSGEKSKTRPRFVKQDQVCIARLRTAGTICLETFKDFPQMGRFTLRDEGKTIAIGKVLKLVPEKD
Chain of GSPT1 (Q96SW2 whole entry): as the sequence (Q96SW2 whole entry) above
Chain of GSPT1 (Q16531 2-1140 partner limits assumed): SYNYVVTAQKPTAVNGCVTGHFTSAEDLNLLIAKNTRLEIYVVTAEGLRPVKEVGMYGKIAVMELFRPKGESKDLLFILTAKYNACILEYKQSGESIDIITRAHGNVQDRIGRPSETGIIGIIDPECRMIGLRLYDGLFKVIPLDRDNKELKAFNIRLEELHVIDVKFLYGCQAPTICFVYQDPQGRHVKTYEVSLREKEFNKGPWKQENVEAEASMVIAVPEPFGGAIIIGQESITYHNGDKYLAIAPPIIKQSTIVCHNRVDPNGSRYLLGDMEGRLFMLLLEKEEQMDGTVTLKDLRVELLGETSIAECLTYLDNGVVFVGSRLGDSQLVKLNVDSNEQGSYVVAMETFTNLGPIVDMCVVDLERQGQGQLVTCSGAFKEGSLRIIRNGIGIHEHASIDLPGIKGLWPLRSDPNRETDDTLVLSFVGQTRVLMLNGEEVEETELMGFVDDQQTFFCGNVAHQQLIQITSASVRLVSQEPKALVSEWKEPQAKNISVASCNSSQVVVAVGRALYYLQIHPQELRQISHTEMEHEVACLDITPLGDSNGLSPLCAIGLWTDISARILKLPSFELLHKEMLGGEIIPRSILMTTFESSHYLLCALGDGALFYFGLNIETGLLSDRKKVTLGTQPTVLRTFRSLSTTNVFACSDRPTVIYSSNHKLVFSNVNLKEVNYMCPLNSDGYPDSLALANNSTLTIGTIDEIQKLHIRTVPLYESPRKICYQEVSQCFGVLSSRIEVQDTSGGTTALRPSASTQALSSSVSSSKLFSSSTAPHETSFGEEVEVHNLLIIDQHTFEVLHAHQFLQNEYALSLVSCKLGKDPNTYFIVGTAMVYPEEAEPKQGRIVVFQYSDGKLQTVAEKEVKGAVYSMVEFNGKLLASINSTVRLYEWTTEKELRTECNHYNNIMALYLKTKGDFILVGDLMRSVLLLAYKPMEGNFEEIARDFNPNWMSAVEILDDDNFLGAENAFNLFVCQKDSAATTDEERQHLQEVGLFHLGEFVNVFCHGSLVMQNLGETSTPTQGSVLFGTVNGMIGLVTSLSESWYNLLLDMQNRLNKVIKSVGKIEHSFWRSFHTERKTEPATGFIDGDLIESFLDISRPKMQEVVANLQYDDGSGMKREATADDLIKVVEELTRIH

For `COCCNC(=O)NCc1ccc2c(c1)C(=O)N(C1CCC(=O)NC1=O)C2` (centres unmarked) [Compound 72], the EC50 is more than 10000 nM in test [1] and more than 2000 nM in test [3] (setting [4]). In test [2], the IC50 stood at 322 nM. Also, on GSPT1, the DC50 is more than 300 nM.

For `O=C1CCC(N2Cc3ccc(CNC(=O)NC4CCCc5ccccc54)cc3C2=O)C(=O)N1` (centres unmarked) [Compound 40], the EC50 in test [1] was more than 10000 nM; in test [3] (setting [4]) it was more than 2000 nM. For the same molecule, the IC50 in test [2] was 566 nM. For the same molecule, on GSPT1, the DC50 is more than 300 nM.

`O=C1CCC(N2Cc3ccc(CNC(=O)Nc4ccccc4-c4ccccc4)cc3C2=O)C(=O)N1` (centres unmarked) [Compound 66]: the EC50 in test [1] is more than 10000 nM; in test [3] (setting [4]), more than 2000 nM. Moreover, the IC50 in test [2] worked out at 449 nM. In addition, the DC50 on GSPT1 is more than 300 nM.

On to `CC(C)NC(=O)NCc1ccc2c(c1)C(=O)N(C1CCC(=O)NC1=O)C2` (centres unmarked) [Compound 12], for which the values for the EC50 in test [1] and in test [3] (setting [4]) were more than 10000 nM and more than 2000 nM, respectively. The IC50 in test [2] was 960 nM. In addition, on GSPT1, the DC50 is more than 300 nM.

Regarding `CCCCCCNC(=O)NCc1ccc2c(c1)C(=O)N(C1CCC(=O)NC1=O)C2` (centres unmarked) [Compound 13], the results for the EC50 in test [1] and in test [3] (setting [4]) were more than 10000 nM and more than 2000 nM, respectively. Besides, the IC50 in test [2] stood at 944 nM. Also, the DC50 on GSPT1 is more than 300 nM.

As to `N#Cc1ccc(NC(=O)NCc2ccc3c(c2)C(=O)N(C2CCC(=O)NC2=O)C3)cc1` (centres unmarked) [Compound 74], the EC50 in test [1] is more than 10000 nM; in test [3] (setting [4]), more than 2000 nM. The IC50 in test [2] turned out to be 196 nM. Also, the DC50 at GSPT1 was more than 300 nM.

Turning to `C[C@H](NC(=O)NCc1ccc2c(c1)C(=O)N(C1CCC(=O)NC1=O)C2)c1ccccc1` (some centres unmarked) [Compound 55], the EC50 in test [1] was more than 10000 nM; in test [3] (setting [4]), more than 2000 nM. Besides, the IC50 in test [2] amounted to 497 nM. For the same molecule, the DC50 on GSPT1 was more than 300 nM.

Turning to `CC(C)(C)c1ccccc1NC(=O)NCc1ccc2c(c1)C(=O)N(C1CCC(=O)NC1=O)C2` (centres unmarked) [Compound 11], the EC50 in test [1] is more than 10000 nM; in test [3] (setting [4]) it was more than 2000 nM. Besides, in test [2], the IC50 is 1230 nM. Also, the DC50 on GSPT1 was more than 300 nM.

Regarding `O=C1CCC(N2Cc3ccc(CNC(=O)NCC4CCCCC4)cc3C2=O)C(=O)N1` (centres unmarked) [Compound 58], the EC50 in test [1] was more than 10000 nM; in test [3] (setting [4]), more than 2000 nM. In addition, the IC50 in test [2] was determined as 540 nM. Further, the DC50 on GSPT1 was more than 300 nM.

Consider `CCc1ccccc1NC(=O)NCc1ccc2c(c1)C(=O)N(C1CCC(=O)NC1=O)C2` (centres unmarked) [Compound 36], for which the EC50 is more than 10000 nM in test [1] and more than 2000 nM in test [3] (setting [4]). Further, the IC50 in test [2] amounted to 546 nM. Also, the DC50 on GSPT1 was more than 300 nM.

`COc1ccc(NC(=O)NCc2ccc3c(c2)C(=O)N(C2CCC(=O)NC2=O)C3)cc1Cl` (centres unmarked) [Compound 59]: the EC50 was more than 10000 nM in test [1]; 400 to 2000 nM in test [3] (setting [4]); 589 nM in test [3] (myc-HMEC 3D spheroids (compounds with code D and E), 5 days, read-out: EC50). Also, the IC50 in test [2] turned out to be 373 nM. Further, the DC50 on GSPT1 lay in the range of 100 to 300 nM.

On to `N#Cc1cccc(NC(=O)NCc2ccc3c(c2)C(=O)N(C2CCC(=O)NC2=O)C3)c1` (centres unmarked) [Compound 73], for which the EC50 in test [1] is more than 10000 nM; in test [3] (setting [4]) it was more than 2000 nM. In addition, in test [2], the IC50 came to 211 nM. Moreover, on GSPT1, the DC50 is more than 300 nM.

In the case of `COc1ccccc1NC(=O)NCc1ccc2c(c1)C(=O)N(C1CCC(=O)NC1=O)C2` (centres unmarked) [Compound 7], the EC50 is more than 10000 nM in test [1] and more than 2000 nM in test [3] (setting [4]). In addition, the IC50 in test [2] turned out to be 324 nM. Besides, at GSPT1, the DC50 was more than 300 nM.

For the molecule `Cc1cccc(NC(=O)NCc2ccc3c(c2)C(=O)N(C2CCC(=O)NC2=O)C3)c1` (centres unmarked) [Compound 43], the figures for the EC50 in test [1] and in test [3] (setting [4]) were more than 10000 nM and more than 2000 nM, respectively. Besides, the IC50 in test [2] worked out at 757 nM. Also, the DC50 at GSPT1 is more than 300 nM.

Turning to `COc1ccc(NC(=O)NCc2ccc3c(c2)C(=O)N(C2CCC(=O)NC2=O)C3)cc1` (centres unmarked) [Compound 5], the concentration giving a half-maximal response (EC50) was more than 10000 nM in test [1] and more than 2000 nM in test [3] (setting [4]). Further, in test [2], the IC50 amounted to 339 nM. For the same molecule, the DC50 at GSPT1 was more than 300 nM.

Regarding `O=C1CCC(N2Cc3ccc(CNC(=O)NCCc4ccc(Cl)cc4)cc3C2=O)C(=O)N1` (centres unmarked) [Compound 64], the EC50 in test [1] is more than 10000 nM; in test [3] (setting [4]), more than 2000 nM. Further, in test [2], the IC50 was 400 nM. The DC50 on GSPT1 is more than 300 nM.
